Results published in PMC6154738, “Anti-Onchocerca and Anti-Caenorhabditis Activity of a Hydro-Alcoholic Extract from the Fruits of Acacia nilotica and Some Proanthocyanidin Derivatives” (Molecules : A Journal of Synthetic Chemistry and Natural …, 2017).
Converted amounts (≈) assume the structure as drawn. Like-named read-outs stand apart in the source and are kept apart here.

Columns and labels:
[1] = system: O. ochengi males; experiment: microbe, parasite or virus in culture; set-up: species or system Onchocerca ochengi; conditions: for LC50: Onchocerca ochengi, 48 h; for Selectivity Index (SI) O. ochengi Males: SI = CC50 on Caco-2/LC50 on worm
Source text: The adult male worms were isolated as previously describe by Ndjonka et al. from fresh pieces of cattle skin (cow-udder) with palpable nodules obtained from the communal slaughter house of Ngaoundere in the Adamawa region of Cameroon. Nodules removed from the skin were brought to the laboratory, washed, drained and sterilized with 70% ethanol for dissection. After dissection of nodules, O. ochengi were extracted, isolated and washed three times in sterile phosphate-buffered saline (PBS). To analyze the anthelmintic activity of extract, fractions and pure compounds, the worms were incubated at 37 °C.
(§1) Adult worms (six individuals per well for males and one per well for the female) and Mf were washed twice and were subsequently transferred to RPMI-1640 medium supplemented with L-glutamine, 100 U/mL penicillin and 100 µg/mL streptomycin and incubated at 37 °C in 24-well plates (96-well plate for Mf) with different concentrations of the drugs tested. Worm mortality was checked by observation under the binocular microscope after 48 h. After shaking, immotile and fully-elongated worms were considered to be dead. All tests were done in three independent triplicate determinations.

[2] = system: O. ochengi females; experiment: microbe, parasite or virus in culture; set-up: species or system Onchocerca ochengi; conditions: for LC50: Onchocerca ochengi, 48 h; for Selectivity Index (SI) O. ochengi Females: SI = CC50 on Caco-2/LC50 on worm
Protocol: The adult female worms were isolated by digestion of the nodules with collagenase at 37 °C. The female worms were cultured in a CO2-incubator [67]. For anthelmintic activity, they were incubated with the crude extracts, fractions and pure compounds.
as §1

[3] = system: O. ochengi microfilariae; experiment: microbe, parasite or virus in culture; set-up: species or system Onchocerca ochengi; conditions: for LC50: Onchocerca ochengi, 48 h; for Selectivity Index (SI) O. ochengi Microfilariae: SI = CC50 on Caco-2/LC50 on worm
Protocol: Microfilariae were isolated as describe by Cho-Ngwa et al. and Ndjonka et al.. About 10 skin snips were obtained from different locations of the skin. The skin snips were then incubated at 37 °C in PBS to let Mf emerge. The highly motile Mf were concentrated by centrifugation at 400× g for 10 min and quantified. The Mf were incubated at 37 °C with the crude extract, fractions and pure compounds.
as §1

[4] = system: C. elegans CB211 (lev-1(e211) IV); experiment: microbe, parasite or virus in culture; conditions: Caenorhabditis elegans, 48 h
Protocol: (§2) All strains were obtained from the Caenorhabditis Genetic Centre (CGC, Minneapolis, MN, USA). Strains were maintained at 20 °C on nematode growth medium (NGM). All worms were age-synchronized and obtained from eggs that were isolated by bleaching.
(§3) Young adult (L4 stage) worms were used to assess drug lethality. Monitored endpoint was 48 h mortality. Tests were performed in 24-well plates. Five hundred (500) microliters of test solution, which is M9-buffer (3 g KH2PO4, 6 g Na2HPO4, 5 g NaCl, 0.25 g MgSO4.7H2O, in 1 L of water after been autoclaved supplemented with 2% glucose, 0.5% cholesterol), were distributed in 24-well plates. The volume of M9-buffer equivalent to the drug to be added for each drug final concentration (in each test, three to six concentrations were used) was removed. Untreated worms in M9-buffer were used as negative control. […] Crude extract fraction (stock solution at 100 mg/mL) and pure compound (stock solution at 100 mg/mL) previously dissolved in M9-buffer were then added in well plates at increasing concentration (varying from 0 to 1000 or 1500 µg/mL for extract and fractions; 0 to 100 or 150 µg/mL). The young adult (10 to 15 ± 2) from the axenic culture (without food source) were then added at the test solution. […] Treatments were replicated three times.

[5] = system: C. elegans CB3474 (ben-1(e1880) III); experiment: microbe, parasite or virus in culture; conditions: Caenorhabditis elegans, 48 h
Protocol: as §2, §3

[6] = system: C. elegans DA1316 (avr-14(ad1302) I avr-15(ad1051) glc-1(pk54)); experiment: microbe, parasite or virus in culture; conditions: Caenorhabditis elegans, 48 h
Protocol: as §2, §3

[7] = system: C. elegans N2 Bristol WT; experiment: microbe, parasite or virus in culture; conditions: for LC50: Caenorhabditis elegans, 48 h; for Selectivity Index (SI) C. elegans Wild Type: SI = CC50 on Caco-2/LC50 on worm
Protocol: as §2, §3

[8] = system: C. elegans VC722 (glc-2(ok1047) I); experiment: microbe, parasite or virus in culture; conditions: Caenorhabditis elegans, 48 h
Protocol: as §2, §3

[9] = system: C. elegans ZZ16 (lev-9(x16) X); experiment: microbe, parasite or virus in culture; conditions: Caenorhabditis elegans, 48 h
Protocol: as §2, §3

[10] = In vitro cytotoxicity (MTT) and CC50 determination; format: cell-based; conditions: human; for CC50 at 48 h: Caco-2, CC50 after 48 h calculated in µM, read-out: Cytotoxicity CC50, Caco-2 (in brackets) (converted); for CC50 at 72 h: Caco-2, MTT, read-out: Cytotoxicity, means CC50 ± SD, Caco-2
Protocol: Cell culture: […] cells at Passage 70 were kindly provided by Prof. Hensel, Institute of Pharmaceutical Biology and Phytochemistry, University of Münster, and were cultured as previously describe by Zumdick et al..
Cytotoxicity test: The cytotoxicity assays were performed according to the method of Rahman et al.. Briefly, 1.5 × 10^4 viable cells/well were seeded in a 96-well plate and incubated for 24 to 48 h. […] DMEM samples were used as the negative control. […] The medium was removed, and formazan, generated by the activity of dehydrogenases, was solubilized with 70 µL of acidified isopropanol (0.4 M HCl). The amount of MTT-formazan that is directly proportional to the number of living cells was determined by measuring the optical density (OD) at 540 nm using a spectrophotometer. All controls used were treated equally. As control and to determine 100% growth, Caco-2 cells were grown in the absence of drugs so as to calculate cell viability. All determinations were performed in triplicate. […] The selectivity index (SI) values were calculated as the ratio: SI = CC50 of drug on Caco2/LC50 of drug on worm.

[11] = system: Wistar rats; experiment: Acute oral toxicity on rats
Source text: Adult Wistar rats (Rattus norvegicus), males aged 7 to 8 weeks and weighing 150 to 200 g, used for the experiments were obtained from LANAVET (Laboratoire National Vétérinaire, Garoua, Cameroon). The rats were acclimatized for one week in the Veterinary Research Laboratory of the Institute of Agricultural Research for Development, Wakwa, Cameroon, before initiating experiments. Animals were housed in groups of three (one group for the negative control, six groups for each drug at the first phase, six others at the second phase) under ambient temperatures (23 °C ± 1 °C) with relative humidity 55 ± 5% and 12 h light/dark cycle in polycarbonate cages. […] They were monitored by a veterinarian for health status.
Acute oral toxicity (LD50, that is the dose that kills 50% of animals of the tested group) was measured using the method of the OECD guidelines for the testing of chemicals [56] following the European Community guidelines for the protection of animals used in experiments [69] and respecting the 3Rs (Replacement, Refinement, Reduction) [70]. Drugs in distilled water were orally administered separately at doses of 10 mg/kg, 100 mg/kg and 1000 mg/kg body weight. The negative controls were distilled water-administered rats. They were given to three groups of three rats each and observed for 24 h. […] The test was done at a single oral dose for each rat in a 5 mL/kg volume. The experimental animals were starved for 24 h before and 4 h after treatment. […] The appearance of toxic symptoms, such as behavioral changes, locomotion, convulsions and mortality, was observed and recorded. Animals were observed constantly for the first 30 min after administration and, thereafter, every 4 h up to 24 h and, subsequently, once a day for up to 14 days.

[12] = system: O. ochengi; experiment: Anti-Onchocerca activity, all forms of the parasite (summary statements); conditions: read-out: LC50 against O. ochengi (all three forms)
Protocol: as §1

[13] = system: O. ochengi; conditions: cited from earlier work
[14] = read-out: LC50/48 h (in brackets)
[15] = Phase 1, 10 mg/kg single oral dose
[16] = Phase 1, 100 mg/kg single oral dose
[17] = Phase 1, 1000 mg/kg single oral dose
[18] = Phase 2, 1500 mg/kg single oral dose
[19] = Phase 2, 3000 mg/kg single oral dose
[20] = Phase 2, 5000 mg/kg single oral dose

| Structure (SMILES) | LC50 ([1]; read-out: LC50/48 h) [µg/mL] | LC50 [1, 14] [µM] | Selectivity Index (SI) O. ochengi Males [1] | LC50 ([2]; read-out: LC50/48 h) [µg/mL] | LC50 [2, 14] [µM] | Selectivity Index (SI) O. ochengi Females [2] | LC50 ([3]; read-out: LC50/48 h) [µg/mL] | LC50 [3, 14] [µM] | Selectivity Index (SI) O. ochengi Microfilariae [3] | LC50 ([4]; read-out: LC50/48 h) [µg/mL] | LC50 [4, 14] [µM] | LC50 ([5]; read-out: LC50/48 h) [µg/mL] | LC50 [5, 14] [µM] | LC50 ([6]; read-out: LC50/48 h) [µg/mL] | LC50 [6, 14] [µM] | LC50 ([7]; read-out: LC50/48 h) [µg/mL] | Selectivity Index (SI) C. elegans Wild Type [7] | LC50 ([8]; read-out: LC50/48 h) [µg/mL] | LC50 [8, 14] [µM] | LC50 ([9]; read-out: LC50/48 h) [µg/mL] | other results |
| --- | --- | --- | --- | --- | --- | --- | --- | --- | --- | --- | --- | --- | --- | --- | --- | --- | --- | --- | --- | --- | --- |
| Oc1cc(O)c2c(c1)O[C@H](c1cc(O)c(O)c(O)c1)[C@@H](O)C2 [GC, (+)-gallocatechin] | 4.2 ± 0.1 | 13.6 | 15.9 | 5.5 ± 0.3 | 18 | 12.1 | 3.2 ± 0.3 | 10.4 | 20.8 | 21.5 ± 0.3 | 70.2 | 83.1 ± 0.1 | 271 | 82.5 ± 0.1 | 269 | 74.3 ± 0.3 | 0.9 | 96.3 ± 0.07 | 314 | 65.6 ± 0.2 | LC50 [7, 14]: 242 µM; LC50 [9, 14]: 214 µM; CC50 at 48 h [10]: 218 µM; CC50 at 72 h [10]: 66.7 ± 0.7 µg/mL (≈ 218 µM); Mortality of rats: rat number end/start [11, 15]: 0/3; Mortality of rats: rat number end/start [11, 16]: 0/3; Mortality of rats: rat number end/start [11, 17]: 0/3; Mortality of rats: rat number end/start [11, 18]: 0/3; Mortality of rats: rat number end/start [11, 19]: 0/3; Mortality of rats: rat number end/start [11, 20]: 0/3 |
| O=C(OC1Cc2c(O)cc(O)cc2OC1c1cc(O)c(O)c(O)c1)c1cc(O)c(O)c(O)c1 (single isomer, unassigned; (-)) [EGCG, (−)-epigallocatechin-3-O-gallate] | 1.2 ± 0.5 | 2.6 | 50.8 | 1 ± 0.5 | 2.3 | 60.9 | 1.3 ± 0.2 | 2.8 | 46.9 | 26.3 ± 1.3 | 57.4 | 35.7 ± 1 | 77.9 | 40.8 ± 0.3 | 89.1 | 49.8 ± 0.8 | 1.2 | 43.7 ± 2.1 | 95.4 | > 100 | LC50 [7, 14]: 109 µM; CC50 at 48 h [10]: 133 µM; CC50 at 72 h [10]: 60.9 ± 0.8 µg/mL (≈ 133 µM); LC50 [12]: < 2.5 µg/mL |
| CCCCC/C=C\C/C=C\CCCCCCCC(=O)O [linoleic acid] | – | – | – | – | – | – | – | – | – | – | – | – | – | – | – | – | – | – | – | – | LC50 [13]: 55.7 µM |
| O=C(OC1Cc2c(O)cc(O)cc2OC1c1ccc(O)c(O)c1)c1cc(O)c(O)c(O)c1 (single isomer, unassigned; (-)) [ECG, (−)-epicatechin-3-O-gallate] | 2.1 ± 0.3 | 4.7 | 32.2 | 2.1 ± 0.6 | 4.7 | 32.2 | 1 ± 0.4 | 2.2 | 67.6 | 41.7 ± 1.2 | 89.3 | 19.6 ± 0.8 | 44.2 | 27.4 ± 1.1 | 61.9 | 33.8 ± 2.7 | 2.0 | 27.2 ± 1.4 | 61.4 | 39.5 ± 0.9 | LC50 [9, 14]: 76.4 µM; CC50 at 48 h [10]: 153 µM; CC50 at 72 h [10]: 67.6 ± 0.5 µg/mL (≈ 153 µM); LC50 [12]: < 2.5 µg/mL; Mortality of rats: rat number end/start [11, 15]: 0/3; Mortality of rats: rat number end/start [11, 16]: 0/3; Mortality of rats: rat number end/start [11, 17]: 0/3; Mortality of rats: rat number end/start [11, 18]: 0/3; Mortality of rats: rat number end/start [11, 19]: 0/3; Mortality of rats: rat number end/start [11, 20]: 0/3 |
| O=C(O[C@H]1Cc2c(O)cc(O)cc2O[C@@H]1c1ccc(O)c(O)c1)c1cc(O)c(O)c(O)c1 [CG, (+)-catechin-3-O-gallate] | 7.6 ± 0.2 | 17.2 | 8.7 | 4.5 ± 0.3 | 10.2 | 14.7 | 4.2 ± 0.1 | 9.4 | 15.8 | 96.4 ± 0.1 | 218 | 95.2 ± 0.3 | 215 | 96.3 ± 0.3 | 218 | 90.6 ± 0.07 | 0.7 | 91.8 ± 0.3 | 208 | 95.3 ± 0.1 | LC50 [7, 14]: 205 µM; LC50 [9, 14]: 215 µM; CC50 at 48 h [10]: 150 µM; CC50 at 72 h [10]: 66.3 ± 0.6 µg/mL (≈ 150 µM); Mortality of rats: rat number end/start [11, 15]: 0/3; Mortality of rats: rat number end/start [11, 16]: 0/3; Mortality of rats: rat number end/start [11, 17]: 0/3; Mortality of rats: rat number end/start [11, 18]: 0/3; Mortality of rats: rat number end/start [11, 19]: 0/3; Mortality of rats: rat number end/start [11, 20]: 0/3 |
